Experimental data as given in patent publication US10570176B2, “Anti-hepatitis B virus X protein polypeptide pharmaceutical” (priority 2015, dated 2020).
Non-standard residues stand in square brackets, D forms with d. No end group written: not given here.

Tests used:
[1] = system: liver cancer HepAD38 cells integrated with HVB DNA; experiment: HBeAg secretion ELISA in HepAD38 cells; format: cell-based; conditions: for Inhibition of HBeAg secretion levels: 10 μM
Experimental: (§1) 3. Analysis of function of D-TTK001 on HBeAg secreation in liver cancer cells utilizing enzyme-linked immunosorbent assay (ELISA)
(§2) (i) Biosafety cabinet was ultraviolet sterilized for 30 min and purged for 30 min; DMEM/F12 (1:1) culture medium containing 15% fetal bovine serum, HepAD38 cells (or HepG2.2.15 cells) were taken out, sterilized with 75% alcohol, and placed in the biosafety cabinet.
(§3) (ii) Under aseptic conditions, discard old culture medium, add 3 mL 1×PBS each time, wash twice, add 1 mL 0.25% trypsin, the cells were digested until cell rounding as observed in microscope. Add 5 mL culture medium, dispense cells, count with hemocytometer, and dilute with culture medium to a cell number of 1˜2×10^4 cells/mL.
(§4) (iii) Plating 96-well plate. Under aseptic conditions, discard old culture medium, add 3 mL 1×PBS each time, wash twice, add 1 mL 0.05% trypsin, the cells were digested until cell rounding as observed in microscope. Add 10 mL culture medium, dispense cells, count with hemocytometer, and dilute with DMEM/F12(1:1) culture medium, add 100 μL cell suspension into each well to a cell number of 1˜2×10^3 cells/mL. The outer-most wells are not added with cells. Culturing until cell attachment (usually 12 hrs.) and extension. Subsequent tests can be conducted when cells are in good condition.
(2) Applying D-TTK001 (or L-TTK001, i.e., anti-HBxP1#) to liver cancer HepAD38 cells (or HepG2.2.15 cells)
10 mM D-TTK001 (or L-TTK001) mother solution was serially diluted from high concentration to low concentration, added into liver cancer HepAD38 cells (or HepG2.2.15 cells) culture solution to obtain final concentrations of D-TTK001 (or L-TTK001) of 0.1 μM, 1 μM, 10 and 100 μM in respective groups. […]
(3) Applying ELISA to measure HBeAg content in HepAD38 cell (or HepG2.2.15 cell) culture medium
(i) Balancing: place HBeAg assay kit in room temperature for 30 min.
(ii) Preparing solution: dilute concentrated wash liquid for 25 times with purified water.
(iii) Taking out the plate: take out the reaction plate according to experimental requirements (3 wells for negative control, 1 well for positive control, and 1 well for blank control).
(iv) Adding sample: add 75 μL of test samples or negative/positive control into respective wells, gently shake and mix.
(v) Incubating: after sealed with microplate sealer, incubate at 37° C. for 60 min.
(vi) Adding enzyme: add 50 μL of enzyme conjugates into each well except for blank wells, gently shake and mix.
(vii) Incubating: after sealed with microplate sealer, incubate at 37° C. for 30 min.
(viii) Washing plate: remove microplate sealer carefully, manually wash plate for 5 times, pat dry.
(ix) Developing color: add 50 μL each of color-developing agent A and B liquid, gently shake and mix, develop color in dark placed at 37° C. for 30 min.
(§5) (x) Stopping: add 50 μL of stop solution into each well, gently shake and mix, measure the result in ten minutes. Set wavelength of microplate reader to 450 nm, measure OD value for each well after zero setting with blank wells.
The invention also investigates the role of the functional variants of the polypeptide and functional fragments thereof. The sequences as shown in the following table are artificially synthesized D-amino acid substituted sequences on the basis of L-TTK001 (i.e., anti-HBxP1#). The polypeptide fragments were artificially synthesized according to the sequences (method as above), and then, above-mentioned ELISA method was adopted to observe the change in the functions of the polypeptides.

HepG2.2.15 cells = experiment: HBeAg secretion ELISA in HepG2.2.15 cells; format: cell-based; conditions: 0.1, 1, 10, 100 μM
Experimental: as §1, §2, §3
as §4, with “The outer-most wells are not added with cells. Culturing until cell attachment (usually 12 hrs.) and extension. Subsequent tests can be conducted when cells are in good condition.” left out
as §5

HBx protein = molecular target: T1, HBx protein (Hepatitis B virus genotype D subtype ayw, UniProt P03165); experiment: In vitro binding to recombinantly expressed HBx protein, Biacore 3000; conditions: in vitro binding to HBx, in vitro binding analysis results
T1 construct: made in house
T1 sequence (P03165 whole entry): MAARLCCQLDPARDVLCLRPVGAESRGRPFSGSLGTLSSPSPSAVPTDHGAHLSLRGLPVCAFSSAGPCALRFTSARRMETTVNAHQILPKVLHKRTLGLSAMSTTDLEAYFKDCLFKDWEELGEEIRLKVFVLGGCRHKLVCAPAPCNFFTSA
Experimental: The recombinant plasmid (pET-30a-HBx) expressing HBx gene was self-constructed and preserved (Zhang H, et al. J Biomed Biotechnol, doi:10.1155/2009/289068), and then expression and purification of HBx were conducted according to above reference for the measurement of in vitro binding ability. Biacore 3000 biomolecular interaction analyzing unit (manufactured by GE Healthcare) was utilized to measure in vitro binding ability of polypeptide D-TTK001 to recombinantly expressed HBx protein. Polypeptide at different concentrations were injected for 180 seconds at a rate of 30 μL/min. In dissociation stage, HBS-EP buffer was injected for 900 seconds at a rate of 30 μL/min, then at a rate of 30 μL/min, 2 shots of 1 mM NaOH were injected for 20 seconds to regenerate the chip. All signals were calibrated using channel 1 as the reference channel. Binding measurement was conducted twice, respectively, wherein in the first measurement, HBX was injected into the channel of the coupled polypeptide and the blank channel at concentrations of 0 nM, 10 nM, 50 nM, 100 nM, 500 nM and 600 nM, respectively. Binding time was 180 seconds and dissociation time was 400 seconds. On chip surface, 1 mM NaOH was injected for 20 seconds at a rate of 30 μL/min for regeneration. In the second measurement, HBX was injected into the channel of coupled polypeptide and the blank channel at concentrations of 0 nM, 10 nM, 50 nM, 588 nM, 1 μM, and 2 μM, respectively. Binding time was 180 seconds and dissociation time was 400 seconds. On chip surface, 1 mM NaOH was injected for 20 seconds at a rate of 30 μL/min for regeneration. Results were kinetically analyzed by BIA Evaluation Software.

HepAD38 cells = experiment: MTT assay, proliferation of HepAD38 cells; format: cell-based; conditions: 0.1, 1, 10, 100 μM, 48 hrs
Experimental: (1) Plating cells: suspend HepAD38 cells at exponential phase in RPMI1640 medium with 10% FBS, and plate 4000-5000 cells in a 96-well plate with 100 μL per well.
(2) Culturing cells: within 12 hrs. for adhesion of cultured cells, add different concentrations of synthesized D-TTK001 (or L-TTK001) polypeptides from Example 1 (0.1 μM, 1 μM, 10 μM and 100 μM) into 8 wells for each concentration, and incubate for 48 hrs. in common condition.
(3) Coloration: add 20 μL of MTT solution (5 mg/mL MTT in PBS buffer (pH7.4)) for each well.
(4) Incubate for 4 hrs., and carefully aspirate off the supernatant from the wells. Add 150 μL of DMSO into each well, shake for 10 min until the crystals were dissolved.
(5) Comparison: Read in an ELISA reader at 490 nm to measure the absorbance for each well. Results were calculated using Student's t-test.

Substance | Inhibition of HBeAg secretion levels [1] | other results
G-D/S-A-V-M-F-S-S-K-E-R-G (G[dS]AVMFSSKERG) [D-TTK001-1] | inhibits HBeAg secretion levels of HepAD38 cells to various extents | –
G-S-A-D/V-M-F-S-S-K-E-R-G (GSA[dV]MFSSKERG) [D-TTK001-3] | inhibits HBeAg secretion levels of HepAD38 cells to various extents | –
G-S-A-V-D/M-F-S-S-K-E-R-G (GSAV[dM]FSSKERG) [D-TTK001-4] | inhibits HBeAg secretion levels of HepAD38 cells to various extents | –
G-S-A-V-M-D/F-S-S-K-E-R-G (GSAVM[dF]SSKERG) [D-TTK001-5] | inhibits HBeAg secretion levels of HepAD38 cells to various extents | –
G-S-A-V-M-F-D/S-S-K-E-R-G (GSAVMF[dS]SKERG) [D-TTK001-6] | inhibits HBeAg secretion levels of HepAD38 cells to various extents | –
G-S-A-V-M-F-S-D/S-K-E-R-G (GSAVMFS[dS]KERG) [D-TTK001-7] | inhibits HBeAg secretion levels of HepAD38 cells to various extents | –
G-S-A-V-M-F-S-S-D/K-E-R-G (GSAVMFSS[dK]ERG) [D-TTK001-8] | inhibits HBeAg secretion levels of HepAD38 cells to various extents | –
G-S-A-V-M-F-S-S-K-D/E-R-G (GSAVMFSSK[dE]RG) [D-TTK001-9] | inhibits HBeAg secretion levels of HepAD38 cells to various extents | –
G-S-A-V-M-F-S-S-K-E-D/R-G (GSAVMFSSKE[dR]G) [D-TTK001-10] | inhibits HBeAg secretion levels of HepAD38 cells to various extents | –
G-S-D/A-V-M-F-S-S-K-E-R-G (GS[dA]VMFSSKERG) [D-TTK001-2] | inhibits HBeAg secretion levels of HepAD38 cells to various extents | –
GSAVMFSSKERG [L-TTK001, Gly-Ser-Ala-Val-Met-Phe-Ser-Ser-Lys-Glu-Arg-Gly, reference compound] | – | Minimum effective dose on HBeAg secretion levels (HepG2.2.15 cells): 10 µM; Kd (HBx protein): 8 nM; Minimum effective dose on growth and proliferation (MTT) (HepAD38 cells): 10 µM; Minimum effective dose on HBeAg secretion levels ([1]; 0.1, 1, 10, 100 μM): 10 µM
